Some test systems named below: MDA-N; CCRF-CEM leukemia; HCT-15 colon; UACC-257 melanoma; SF-539 CNS; ACHN renal; U251 CNS; SK-MEL-28 melanoma; HS 578T breast; UACC-62 melanoma; MCF7 breast; OVCAR-3 ovarian; HCC-2998 colon; SF-295 CNS; SK-MEL-2 melanoma; NCI/ADR-RES ovarian; TK-10 renal; SF-268 CNS.
Common to all, as to assay: growth of human tumour cells (NCI), 48 h

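Growth conditions: 96-well plates. Treatment: test compound, 48 hours, 5 concentrations. Analysis: linear interpolation between bracketing concentrations; unreached endpoints set to highest concentration. TGI marks complete inhibition of growth.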

As for `COc1cc(/C=C2\C(=O)N(c3ccccc3Cl)C(c3ccccc3)S2(=O)=O)cc(OC)c1OC` (centres undefined), the TGI with MDA-N was 42.5 µM; in the experiment on CCRF-CEM leukemia, 48.9 µM; with HCT-15 colon, over 100 µM; in the experiment with UACC-257 melanoma, over 100 µM; in the experiment on SF-539 CNS, 38.3 µM; in the experiment on ACHN renal it was over 100 µM. Also, the TGI in the experiment on U251 CNS is 81.8 µM; in the experiment with SK-MEL-28 melanoma, over 100 µM; with HS 578T breast, over 100 µM; in the experiment on UACC-62 melanoma, over 100 µM; in the experiment on MCF7 breast, over 100 µM; in the experiment with OVCAR-3 ovarian, over 100 µM. Also, the TGI with HCC-2998 colon, in the experiment with SF-295 CNS, in the experiment with SK-MEL-2 melanoma, in the experiment on NCI/ADR-RES ovarian, in the experiment with TK-10 renal and in the experiment on SF-268 CNS was over 100 µM throughout.
Consider `CCN(C(C)=O)c1cnc(/C=N/NC(N)=S)c2ccccc12`, for which the TGI in the experiment on MDA-N is over 100 µM; with CCRF-CEM leukemia, over 100 µM; in the experiment on HCT-15 colon it was over 100 µM; in the experiment with UACC-257 melanoma, over 100 µM; in the experiment with SF-539 CNS it was 13.6 µM; in the experiment on ACHN renal, over 22.4 µM. The TGI with U251 CNS was over 100 µM; in the experiment with SK-MEL-28 melanoma, over 100 µM; in the experiment on HS 578T breast it was over 100 µM; in the experiment on UACC-62 melanoma, 11 µM; in the experiment on MCF7 breast, over 23.8 µM; with OVCAR-3 ovarian, over 100 µM. Moreover, the TGI in the experiment with HCC-2998 colon was over 100 µM; with SF-295 CNS it was over 68.9 µM; in the experiment with SK-MEL-2 melanoma, over 100 µM; in the experiment on NCI/ADR-RES ovarian it was 58.6 µM; with TK-10 renal it was over 100 µM; in the experiment on SF-268 CNS, over 100 µM.
As to `O=P1(c2ccccc2)C(c2ccccc2)=CC=C1c1ccccc1`, the TGI was 62.1 µM with MDA-N; 62.7 µM in the experiment with CCRF-CEM leukemia; 77.3 µM with HCT-15 colon; over 100 µM in the experiment on UACC-257 melanoma; over 100 µM in the experiment on SF-539 CNS; over 100 µM in the experiment on ACHN renal. For the same molecule, the TGI in the experiment on U251 CNS was 43.8 µM; in the experiment with SK-MEL-28 melanoma, over 100 µM; in the experiment on HS 578T breast it was over 100 µM; with UACC-62 melanoma, over 100 µM; with MCF7 breast, 66.6 µM; in the experiment on OVCAR-3 ovarian it was 89.8 µM. Moreover, the TGI is 64.8 µM with HCC-2998 colon; over 100 µM with SF-295 CNS; 40.9 µM in the experiment with SK-MEL-2 melanoma; over 100 µM in the experiment with NCI/ADR-RES ovarian; 60.1 µM in the experiment on TK-10 renal; over 100 µM with SF-268 CNS.
As to `COc1ccc2c(c1)-c1[nH]c3ccc(OC)cc3c1CC2`, the TGI with MDA-N was determined as 30.2 µM; with CCRF-CEM leukemia it was 80.6 µM; in the experiment on HCT-15 colon, 24.8 µM; with UACC-257 melanoma it was 32.4 µM; with SF-539 CNS it was 33.7 µM; with ACHN renal it was 36.5 µM. In addition, the TGI in the experiment on U251 CNS worked out at 39.2 µM; in the experiment with SK-MEL-28 melanoma it was 32.4 µM; with HS 578T breast, 28 µM; with UACC-62 melanoma, 28.6 µM; in the experiment on MCF7 breast, 89.7 µM; in the experiment on OVCAR-3 ovarian, 32.9 µM. The TGI in the experiment on HCC-2998 colon was determined as 31.4 µM; with SF-295 CNS it was 26.3 µM; with SK-MEL-2 melanoma, 28.4 µM; in the experiment on NCI/ADR-RES ovarian, 24.8 µM; with TK-10 renal, 31.5 µM; in the experiment on SF-268 CNS, 28.1 µM.
Regarding `N#Cc1ccc(C(=O)/C=C/c2ccc(O)c(O)c2)cc1`, the TGI with MDA-N was determined as 30.7 µM; in the experiment with CCRF-CEM leukemia, 14.3 µM; with HCT-15 colon, 30.1 µM; in the experiment with UACC-257 melanoma it was 30 µM; in the experiment on SF-539 CNS, 29.7 µM; with ACHN renal, 31.8 µM. The TGI with U251 CNS is 26.2 µM; in the experiment on SK-MEL-28 melanoma, 29 µM; in the experiment with HS 578T breast it was over 76.6 µM; with UACC-62 melanoma it was 32.5 µM; in the experiment with MCF7 breast, 26 µM; in the experiment on OVCAR-3 ovarian it was 29.3 µM. For the same molecule, the TGI was 28.2 µM in the experiment on HCC-2998 colon; 33.9 µM with SF-295 CNS; 33.8 µM in the experiment with SK-MEL-2 melanoma; over 65.8 µM in the experiment on NCI/ADR-RES ovarian; 27.6 µM in the experiment with TK-10 renal; 31.1 µM in the experiment with SF-268 CNS.
For the molecule `COc1ccc(C2=NN(C(N)=S)C(c3ccccc3)C2)cc1` (centres undefined), the TGI in the experiment with MDA-N was over 100 µM; in the experiment on CCRF-CEM leukemia it was over 100 µM; with HCT-15 colon, over 100 µM; in the experiment with UACC-257 melanoma, 99.1 µM; with SF-539 CNS, over 100 µM; with ACHN renal, over 100 µM. Moreover, the TGI is over 100 µM in the experiment on U251 CNS; over 100 µM in the experiment with SK-MEL-28 melanoma; over 100 µM in the experiment with HS 578T breast; over 100 µM with UACC-62 melanoma; 69.6 µM in the experiment on MCF7 breast; over 100 µM in the experiment on OVCAR-3 ovarian. Also, the TGI was over 100 µM in the experiment on HCC-2998 colon; 96.2 µM with SF-295 CNS; 78.4 µM with SK-MEL-2 melanoma; over 100 µM in the experiment with NCI/ADR-RES ovarian; over 100 µM in the experiment with TK-10 renal; over 100 µM with SF-268 CNS.
Take `Cc1c(F)c(N)c2c(=O)cc(-c3ccc(N)c(F)c3)oc2c1F`: the TGI in the experiment on MDA-N is over 89 µM; with CCRF-CEM leukemia, over 100 µM; in the experiment with HCT-15 colon it was over 100 µM; with UACC-257 melanoma it was over 100 µM; in the experiment on SF-539 CNS, 32.3 µM; with ACHN renal it was 50.4 µM. For the same molecule, the TGI is 33.1 µM in the experiment on U251 CNS; over 95.2 µM with SK-MEL-28 melanoma; over 95 µM in the experiment with HS 578T breast; 31 µM with UACC-62 melanoma; 4.39 µM in the experiment on MCF7 breast; over 100 µM in the experiment with OVCAR-3 ovarian. Further, the TGI is over 100 µM with HCC-2998 colon; 43.2 µM in the experiment on SF-295 CNS; 81.2 µM with SK-MEL-2 melanoma; 42.4 µM in the experiment with NCI/ADR-RES ovarian; 6.72 µM in the experiment on TK-10 renal; 76.7 µM in the experiment on SF-268 CNS.
`Nc1ccc(CCSSCCc2ccc(N)cc2)cc1`: the TGI with MDA-N is over 79.6 µM; in the experiment on CCRF-CEM leukemia it was over 100 µM; in the experiment with HCT-15 colon it was over 67.9 µM; with UACC-257 melanoma, 51.7 µM; with SF-539 CNS, 63.5 µM; in the experiment on ACHN renal, over 93.2 µM. Besides, the TGI with U251 CNS was 41.6 µM; in the experiment with SK-MEL-28 melanoma, over 78.6 µM; in the experiment on HS 578T breast it was 66.4 µM; in the experiment on UACC-62 melanoma, 89.1 µM; with MCF7 breast, over 100 µM; in the experiment with OVCAR-3 ovarian it was over 88.4 µM. Also, the TGI with HCC-2998 colon was 34.4 µM; in the experiment on SF-295 CNS, over 100 µM; in the experiment with SK-MEL-2 melanoma, 43.4 µM; in the experiment on NCI/ADR-RES ovarian, over 74.4 µM; with TK-10 renal it was over 100 µM; in the experiment on SF-268 CNS, 45.2 µM.

The record behind these values is PubChem BioAssay (NCI).
